Type in all cases: cell-based
Assay [1] deals with BT-549. Description: NCI 60-cell line growth inhibition assay: BT-549. As to conditions: Homo sapiens.
Assay [2] deals with MDA-MB-231/ATCC. Description: NCI 60-cell line growth inhibition assay: MDA-MB-231/ATCC. To be noted: Homo sapiens, MDA-MB-231.
The test system of assay [3] is MDA-MB-435. Description: NCI 60-cell line growth inhibition assay: MDA-MB-435. To be noted: Homo sapiens.
Assay [4] has as its system T-47D. Nature of the assay: NCI 60-cell line growth inhibition assay: T-47D. To be noted: Homo sapiens, T47D, Breast. The source says: (§1) The following data in Table 4 summarize the growth inhibition properties of several compounds of the present invention against 60-human transformed cell lines.
The subject of assay [5] is SF-268. Nature of the assay: NCI 60-cell line growth inhibition assay: SF-268. To be noted: Homo sapiens, CNS.
From the text: as §1

In assay [6] the test system is SNB-75. Nature of the assay: NCI 60-cell line growth inhibition assay: SNB-75. To be noted: Homo sapiens.
In assay [7] the test system is U251. Description: NCI 60-cell line growth inhibition assay: U251. As to conditions: Homo sapiens, U-251.
Assay [8] deals with COLO 205. Description: NCI 60-cell line growth inhibition assay: COLO 205. As to conditions: Homo sapiens.
Assay [9] deals with HT29. Nature of the assay: NCI 60-cell line growth inhibition assay: HT29. To be noted: Homo sapiens, HT-29.
Assay [10] has as its system MOLT-4. Nature of the assay: NCI 60-cell line growth inhibition assay: MOLT-4. As to conditions: Homo sapiens.
The subject of assay [11] is LOX IMVI. Nature of the assay: NCI 60-cell line growth inhibition assay: LOX IMVI. To be noted: Homo sapiens.
In assay [12] the test system is MALME-3M. Description: NCI 60-cell line growth inhibition assay: MALME-3M. As to conditions: Homo sapiens, Malme-3M.
Assay [13] concerns SK-MEL-2. Description: NCI 60-cell line growth inhibition assay: SK-MEL-2. As to conditions: Homo sapiens.
In assay [14] the test system is SK-MEL-28. Description: NCI 60-cell line growth inhibition assay: SK-MEL-28. To be noted: Homo sapiens, Melanoma.
From the text: as §1

Assay [15] deals with NCI-H23. To be noted: Homo sapiens.
Assay [16] deals with NCI-H460. As to conditions: Homo sapiens.
The test system of assay [17] is OVCAR-4. Nature of the assay: NCI 60-cell line growth inhibition assay: OVCAR-4. As to conditions: Homo sapiens.
Assay [18] has as its system OVCAR-5. Description: NCI 60-cell line growth inhibition assay: OVCAR-5. To be noted: Homo sapiens.
The subject of assay [19] is DU-145. Nature of the assay: NCI 60-cell line growth inhibition assay: DU-145. As to conditions: Homo sapiens.
Assay [20] concerns RXF 393. Description: NCI 60-cell line growth inhibition assay: RXF 393. As to conditions: Homo sapiens.
Assay [21] concerns UO-31. Description: NCI 60-cell line growth inhibition assay: UO-31. To be noted: Homo sapiens.
Assay [22] has as its system HL-60(TB). Description: cells. To be noted: Homo sapiens, Leukemia.
For assay [23], the system named is K-562. Nature of the assay: NCI 60-cell line growth inhibition assay: K-562. As to conditions: Homo sapiens, K562.
Assay [24] relates to SR. Nature of the assay: NCI 60-cell line growth inhibition assay: SR. As to conditions: Homo sapiens, Leukemia.
From the text: as §1

Assay [25] relates to NCI-H226. To be noted: Homo sapiens, Non-Small Cell Lung.
From the text: as §1

Drawing on patent publication US7745619B2, “Vinca derivatives” (priority 2003, dated 2010), this text covers GI50 for 3 molecules.

For the molecule `CC[C@]1(O)C[C@H]2CN(CCc3c([nH]c4ccc(C#Cc5ccccc5)cc34)[C@@](C(=O)OC)(c3cc4c(cc3OC)N(C)[C@H]3[C@@](O)(C(=O)OC)[C@H](OC(C)=O)[C@]5(CC)C=CCN6CC[C@]43[C@@H]65)C2)C1` [Example 19, 12′-(2-phenylethynyl) vinblastine], the GI50 in assay [1] came to 1890 nM; in assay [2], 2020 nM; in [3], 60.5 nM; in assay [4] it was 4750 nM; in assay [5] it was 731 nM; in assay [6], 530 nM. In addition, the GI50 was 9970 nM in [7]; 1190 nM in [8]; 423 nM in assay [9]; 196 nM in assay [10]; greater than 100000 nM in assay [11]; 254 nM in assay [12]. For the same molecule, the concentration for 50% growth inhibition (GI50) came out at 2290 nM in assay [13]; 1270 nM in assay [14]; 541 nM in assay [15]; 353 nM in assay [16]; 1550 nM in assay [17]; 1780 nM in [18]. Besides, the 50% growth inhibitory concentration (GI50) in assay [19] turned out to be 2460 nM; in [20], 619 nM; in assay [21], 2200 nM.

Regarding `CCCC(=O)/C=C/c1ccc2[nH]c3c(c2c1)CCN1C[C@H](C[C@@](O)(CC)C1)C[C@]3(C(=O)OC)c1cc2c(cc1OC)N(C)[C@H]1[C@@](O)(C(=O)OC)[C@H](OC(C)=O)[C@]3(CC)C=CCN4CC[C@]21[C@@H]43` [Example 29, 12′-(3-oxohex-1-enyl)vinblastine], the 50% growth inhibitory concentration (GI50) in assay [2] was less than 10 nM; in [3], 34.3 nM; in assay [5] it was 901 nM; in assay [7], less than 10 nM; in assay [8], less than 10 nM; in [9], less than 10 nM. Also, the GI50 in assay [22] is 244 nM; in [23], less than 10 nM; in assay [10], 11 nM; in [24] it was 396 nM; in assay [11] it was less than 10 nM; in assay [13] it was 9770 nM. The 50% growth inhibitory concentration (GI50) in assay [25] is less than 10 nM; in assay [16] it was 176 nM; in [17], 21.1 nM; in assay [19], 15.2 nM; in assay [20], 268 nM.

`CCC1=C[C@H]2CN(CCc3c([nH]c4ccc(Br)cc34)[C@@](C(=O)OC)(c3cc4c(cc3OC)N(C)[C@H]3[C@@](O)(C(=O)OC)[C@H](OC(C)=O)[C@]5(CC)C=CCN6CC[C@]43[C@@H]65)C2)C1` [Example 97, 12′-bromoanhydro vinblastine]: the concentration for 50% growth inhibition (GI50) in assay [2] is less than 10 nM; in [3], less than 10 nM; in [4] it was 19400 nM; in assay [5] it was less than 10 nM; in assay [6] it was 12200 nM; in [7], less than 10 nM. Moreover, the 50% growth inhibitory concentration (GI50) in assay [8], in [9], in [22], in [23], in assay [10] and in assay [11] was less than 10 nM each time. Besides, the 50% growth inhibitory concentration (GI50) was 1420 nM in assay [12]; 3310 nM in assay [14]; less than 10 nM in assay [25]; 325 nM in assay [15]; less than 10 nM in assay [16]; 12.4 nM in [18]. This molecule registered a GI50 in assay [19] of less than 10 nM.
